The values below come from ChEMBL document CHEMBL1127170, “Cyclooxygenase and 5-lipoxygenase inhibitory activity of 2,6 di-t-butylphenols linked by a sulfur atom to 1,3,4-thiadiazoles and 1,3,4-oxadiazoles” (Bioorg Med Chem Lett, 1993).

One may read the inhibition as the share of the control response that was lost under treatment. Low readings indicate a weak effect, high ones a strong effect. Usually IC50 stands for the point on the concentration scale where inhibition reaches its midpoint. A low value points to higher potency.

For assay [1], the target named is T1, Cyclooxygenase (Rattus norvegicus) (UniProt P35355+Q63921). The assay is described as follows: The compound was tested for the inhibition of Prostaglandin G/H synthase in intact basophilic rat leukemia cells at 10 uM.
Assay [2] deals with T2, Polyunsaturated fatty acid 5-lipoxygenase (Rattus norvegicus) (UniProt P12527).
T2 sequence (whole entry): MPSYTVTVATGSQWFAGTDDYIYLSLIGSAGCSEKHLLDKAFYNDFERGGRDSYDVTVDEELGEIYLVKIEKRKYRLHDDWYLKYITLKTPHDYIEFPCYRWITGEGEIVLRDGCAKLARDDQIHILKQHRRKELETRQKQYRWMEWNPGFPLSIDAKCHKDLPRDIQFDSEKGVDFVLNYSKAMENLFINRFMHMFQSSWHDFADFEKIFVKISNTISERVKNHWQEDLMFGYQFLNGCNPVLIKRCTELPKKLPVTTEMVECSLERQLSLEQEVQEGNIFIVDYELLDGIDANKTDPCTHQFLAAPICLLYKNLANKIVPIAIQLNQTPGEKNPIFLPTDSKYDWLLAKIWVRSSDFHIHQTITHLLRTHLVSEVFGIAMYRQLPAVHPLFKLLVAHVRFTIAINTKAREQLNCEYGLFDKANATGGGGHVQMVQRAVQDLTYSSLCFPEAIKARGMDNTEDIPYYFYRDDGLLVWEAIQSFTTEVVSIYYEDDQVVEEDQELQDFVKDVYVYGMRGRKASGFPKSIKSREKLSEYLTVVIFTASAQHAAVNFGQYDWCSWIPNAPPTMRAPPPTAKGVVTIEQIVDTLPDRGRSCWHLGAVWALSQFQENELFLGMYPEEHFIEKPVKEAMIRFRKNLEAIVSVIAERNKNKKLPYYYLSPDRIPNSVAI
The assay is described as follows: The compound was tested for the inhibition of 5-lipoxygenase in intact basophilic rat leukemia cells at 10 uM. In kind it is cell-based. To be noted: RBL-1.

The target of assay [3] is T3, Polyunsaturated fatty acid 5-lipoxygenase (Rattus norvegicus, UniProt P12527).
T3 sequence (P12527 whole entry): T2 sequence (whole entry)
The experiment in a line: The compound was tested for the inhibition of 5-lipoxygenase in intact basophilic rat leukemia cells. It counts as cell-based, RBL-1.

Assay [4] addresses T1, Cyclooxygenase (Rattus norvegicus). The assay is described as follows: The compound was tested for the inhibition of Prostaglandin G/H synthase in intact basophilic rat leukemia cells at 16 uM.
The target of the next assay is T4, Cyclooxygenase (Rattus norvegicus, UniProt P35355+Q63921).
T4 sequence (P35355 whole entry): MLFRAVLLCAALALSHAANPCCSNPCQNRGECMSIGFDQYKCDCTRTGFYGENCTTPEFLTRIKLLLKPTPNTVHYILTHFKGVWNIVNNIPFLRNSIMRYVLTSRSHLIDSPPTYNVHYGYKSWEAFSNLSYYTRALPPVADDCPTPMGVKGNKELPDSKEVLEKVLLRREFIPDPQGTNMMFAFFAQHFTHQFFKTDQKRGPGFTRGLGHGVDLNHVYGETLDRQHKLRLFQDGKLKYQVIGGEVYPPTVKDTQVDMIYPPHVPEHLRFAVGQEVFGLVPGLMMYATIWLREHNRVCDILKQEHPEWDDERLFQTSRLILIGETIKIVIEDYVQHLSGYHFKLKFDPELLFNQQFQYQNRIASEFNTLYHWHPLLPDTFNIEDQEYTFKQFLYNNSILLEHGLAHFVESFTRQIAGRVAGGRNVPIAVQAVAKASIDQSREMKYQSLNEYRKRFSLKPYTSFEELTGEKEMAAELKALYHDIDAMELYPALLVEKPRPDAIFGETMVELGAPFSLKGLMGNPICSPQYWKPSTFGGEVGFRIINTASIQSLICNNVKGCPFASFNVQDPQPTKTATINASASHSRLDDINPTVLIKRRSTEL
T4 sequence (Q63921 whole entry): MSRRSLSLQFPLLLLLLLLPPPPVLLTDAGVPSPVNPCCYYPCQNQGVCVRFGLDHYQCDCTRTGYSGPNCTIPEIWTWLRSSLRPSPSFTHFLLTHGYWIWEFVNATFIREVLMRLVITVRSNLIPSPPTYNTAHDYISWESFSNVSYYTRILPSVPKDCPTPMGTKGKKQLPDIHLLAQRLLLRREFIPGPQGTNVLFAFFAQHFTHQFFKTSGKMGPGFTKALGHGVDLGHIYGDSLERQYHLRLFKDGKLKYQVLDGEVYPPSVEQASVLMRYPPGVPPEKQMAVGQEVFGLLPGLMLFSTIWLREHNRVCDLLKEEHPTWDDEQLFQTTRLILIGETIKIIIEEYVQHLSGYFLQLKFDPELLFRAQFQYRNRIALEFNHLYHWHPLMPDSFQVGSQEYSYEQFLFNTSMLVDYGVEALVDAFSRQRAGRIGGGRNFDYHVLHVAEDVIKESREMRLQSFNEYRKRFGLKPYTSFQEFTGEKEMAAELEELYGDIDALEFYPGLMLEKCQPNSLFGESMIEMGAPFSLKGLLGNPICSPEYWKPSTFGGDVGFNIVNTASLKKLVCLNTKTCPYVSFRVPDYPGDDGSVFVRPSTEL
The assay is described as follows: The compound was tested for the inhibition of Prostaglandin G/H synthase in intact basophilic rat leukemia cells.

Assay [5] has as its target T2, Polyunsaturated fatty acid 5-lipoxygenase (Rattus norvegicus). The experiment in a line: The compound was tested for the inhibition of 5-lipoxygenase in intact basophilic rat leukemia cells at 1.0 uM. It counts as cell-based. To be noted: RBL-1.

The structures appear in SMILES notation. Bounds are passed on as bounds.

Turning to `CC(C)(C)c1cc(Sc2nnc(N)s2)cc(C(C)(C)C)c1O`, the inhibition in assay [1] and in assay [2] was under 40% each time. The compound `CC(C)(C)c1cc(Sc2nnc(O)o2)cc(C(C)(C)C)c1O` had an IC50 in assay [3] of 1.1 µM. The inhibition in assay [4] is under 40%. Take `CC(C)(C)c1cc(Sc2nnc(NC#N)s2)cc(C(C)(C)C)c1O`: the IC50 in assay [3] was determined as 3.1 µM; against Cyclooxygenase, 6 µM. As to `CC(C)(C)c1cc(Sc2nnc(O)s2)cc(C(C)(C)C)c1O`, the figures for the inhibition in assay [5] and in assay [4] were 75% and under 40%, respectively. In turn, `CC(C)(C)c1cc(Sc2nnc(S)s2)cc(C(C)(C)C)c1O` showed an IC50 against Cyclooxygenase of 3.6 µM. Still for that read-out and setting: as for `CC(C)(C)c1cc(Sc2nnc(S)o2)cc(C(C)(C)C)c1O`, the figure is 1.5 µM.
